From patent US20260158102A1, “CYCLIC PEPTIDE DERIVATIVE COMPOSITION FOR TREATING OR PREVENTING NEUROPATHIC PAIN AND/OR INFLAMMATORY PAIN” (DKS Co. Ltd., priority 2022, published 2026)

What was measured:
[1] = system: STZ-induced diabetic rats; assay: von Frey test in rat STZ-induced diabetes model; type: in vivo; settings: for 50% withdrawal threshold by von Frey test: mean ± SE, n=10
Experimental: The activity of the compound of the present disclosure was evaluated according to the following procedure.
(§1) Compound 9 (50 mg/mL) was diluted with water for injection to obtain a 1 mg/mL administration specimen. For the specimens to be administered at 0.1 mg/mL and 0.01 mg/mL, the specimen to be administered at 1 mg/mL was diluted stepwise with water for injection. Each administration specimen was divided into PP disposable tubes every day and stored in a storehouse (freezer: MDF-MU339H-PJ, PHC Corporation) under the condition of freezing (−30° C. to −20° C., measured value: −26.4 to −24.5° C.). Preparation was performed on the day before the start of administration.
(§2) Water for injection was added to and dissolved in Pregabalin taken out from the capsule to obtain 2 mg/mL. It was prepared before use.
(§3) • Animal species: rat (SPF) • Strain: Crl: CD (SD) • Date of animal acquisition, gender, age in weeks, number of animals acquired, and weight range after 1 day of acquisition • First and second courses: Apr. 6, 2022, male, 7 weeks old, 35 animals, 217 to 237 g • Third and fourth courses: Apr. 13, 2022, male, 7 weeks old, 35 animals, 216 to 235 g • Source: […].
Among the animals having a 50% withdrawal threshold of 8 g or more in the von Frey test measured during the preliminary breeding period, two animals from young animals with animal numbers were assigned to non-diabetes-induced animals, and the remaining animals were assigned to diabetes-induced animals.
Among the diabetes-induced animals, animals having a blood glucose level of 300 mg/dL or less were excluded from the grouping subjects, and were grouped using a computer program (IBUKI, Nihon Bioresearch Center, Inc.) so that the body weight and the average blood glucose level of each group were approximately equal. That is, the animals for the first and second courses and the third and fourth courses were grouped into one non-diabetes animal for Group 1, and 5 […] animals for Groups 2 to 6. Note that the grouping was performed so that there were 4 examples in Group 1 and 10 examples in each of Groups 2 to 6.
• Administration method: Using a syringe (Terumo Corporation) equipped with a 25 G winged injection needle (Terumo Corporation), tail vein administration was performed. Note that a 0.75 mmol/L CAB solution was administered to a non-diabetes-induced control group.
(§4) • Dose volume: calculated at 2 mL/kg based on the body weight on the day of administration. • Number of times of administration: once • Day of administration: 7 days before the day of starting administration of the test substance.
• Administration method: Using a syringe (Terumo Corporation) equipped with a 25 G winged injection needle (Terumo Corporation), tail vein administration was performed. Note that physiological saline was administered to the non-diabetes control group and the diabetes control group.
(§5) • Dose volume: calculated at 1 mL/kg based on the body weight on the day of administration. • Number of times of administration: 9 times • Interval of administration: once every 3 days (evaluation was performed on the day after administration) • Day of starting administration: day 8 of STZ administration (day of STZ administration is counted as day 1).
• Administration method: Using a polypropylene disposable syringe (Terumo Corporation) equipped with a metal oral zonde for a rat (Fuchigami kikai Ltd.), forced oral administration was performed.
• Dose volume: calculated at 10 mL/kg based on the body weight on the day of administration. • Number of times of administration: Administration was performed once on the day of evaluation of neuropathic pain, twice in total, and on the other days of administration, a vehicle for a control substance (water for injection) was orally administered. […]

[2] = Measurement of blood glucose level in rat STZ-induced diabetes model; type: in vivo; settings: mean ± SE
Experimental: as §1, §2, §3, §4, §5
• Dose volume: calculated at 10 mL/kg based on the body weight on the day of administration. • Number of times of administration: Administration was performed once on the day of evaluation of neuropathic pain, twice in total, and on the other days of administration, a vehicle for a control substance (water for injection) was orally administered.
On days 7 and 35 of STZ administration, about 50 μL of blood was collected from the tail vein using a winged injection needle (Terumo Corporation) equipped with a heparinized capillary (DRUMMOND […]).
The blood obtained above was centrifuged [centrifugal conditions: 4° C., 3,000 rpm (×2,150 g), 15 min] with a centrifuge (CF 9RX, Hitachi Koki Co., Ltd.) to obtain plasma. Blood glucose levels of a part of plasma obtained by blood collection on day 7 and day 35 after STZ administration were measured by hexokinase G-6 PDH method (L-type Wako Glu2, FUJIFILM Wako Pure Chemical Corporation) using a biochemical automatic analyzer (AU480, Beckman Coulter, Inc.). […] The plasma after the measurement was discarded.
The mean and standard error of each group were calculated for the 50% withdrawal threshold, body weight, and blood glucose level.
The body weight was an integer.
No significant difference test of body weight and blood glucose levels was performed.

Structure (SMILES): CC[C@@]1(C)Oc2cc(ccc2O)C[C@H](NC)C(=O)N[C@@H](C(C)C)C(=O)N[C@@H]1C(=O)N[C@@H](CC(=O)O)C(=O)O [Compound 9]
- 50% withdrawal threshold by von Frey test ([1]; 0.01 mg/kg iv group, Pre: before STZ administration): 14.6 ± 0.4 g
- change in the 50% withdrawal threshold (von Frey test) ([1]; 0.01 mg/kg iv group, as compared with the non-diabetes control group (so in the source)): no significant change
- 50% withdrawal threshold by von Frey test ([1]; 0.01 mg/kg iv once every 3 days from day 8, day 14 of STZ administration): 5.7 ± 0.5 g
- 50% withdrawal threshold by von Frey test ([1]; 0.01 mg/kg iv once every 3 days from day 8, day 28 of STZ administration): 3.8 ± 0.2 g
- 50% withdrawal threshold by von Frey test ([1]; 0.1 mg/kg iv group, Pre: before STZ administration): 13.1 ± 0.8 g
- change in the 50% withdrawal threshold (von Frey test) ([1]; 0.1 mg/kg iv group, as compared with the non-diabetes control group (so in the source)): no significant change
- 50% withdrawal threshold by von Frey test ([1]; 0.1 mg/kg iv once every 3 days from day 8, day 14 of STZ administration): 5.7 ± 0.5 g
- 50% withdrawal threshold by von Frey test ([1]; 0.1 mg/kg iv once every 3 days from day 8, day 28 of STZ administration): 4.8 ± 0.4 g
- 50% withdrawal threshold by von Frey test ([1]; 1 mg/kg iv group, Pre: before STZ administration): 13.5 ± 0.7 g
- change in the 50% withdrawal threshold (von Frey test) ([1]; 1 mg/kg iv group, day 28 after STZ administration, as compared with the diabetes control group): significant increase
- 50% withdrawal threshold by von Frey test ([1]; 1 mg/kg iv once every 3 days from day 8, day 14 of STZ administration): 5.8 ± 0.5 g
- 50% withdrawal threshold by von Frey test ([1]; 1 mg/kg iv once every 3 days from day 8, day 28 of STZ administration): 6.7 ± 0.7 † g
- effect on diabetic peripheral neuropathic pain ([1]; STZ-induced diabetic rats, conclusion of the discussion): suppressing effect
- Blood glucose level, Glu ([2]; 0.01 mg/kg iv group, day 7 of STZ administration (before start of dosing)): 581.8 ± 18.5 mg/dL
- Blood glucose level, Glu ([2]; 0.01 mg/kg iv, day 35 of STZ administration): 623.6 ± 22.0 mg/dL
- Blood glucose level, Glu ([2]; 0.1 mg/kg iv group, day 7 of STZ administration (before start of dosing)): 576.3 ± 15.5 mg/dL
- Blood glucose level, Glu ([2]; 0.1 mg/kg iv, day 35 of STZ administration): 608.4 ± 32.7 mg/dL
- Blood glucose level, Glu ([2]; 1 mg/kg iv group, day 7 of STZ administration (before start of dosing)): 562.7 ± 14.7 mg/dL
- Blood glucose level, Glu ([2]; 1 mg/kg iv, day 35 of STZ administration): 605.6 ± 18.9 mg/dL

Structure (SMILES): CC(C)C[C@H](CN)CC(=O)O [Pregabalin, reference compound]
- 50% withdrawal threshold by von Frey test ([1]; 20 mg/kg oral group, Pre: before STZ administration): 12.7 ± 0.7 g
- 50% withdrawal threshold by von Frey test ([1]; 20 mg/kg oral, 3 hours after administration, day 14 of STZ administration): 14.5 ± 0.5 g
- 50% withdrawal threshold by von Frey test ([1]; 20 mg/kg oral, 3 hours after administration, day 28 of STZ administration): 14.1 ± 0.7 g
- change in the 50% withdrawal threshold (von Frey test) ([1]; 20 mg/kg oral, both 14 days and 28 days after STZ administration, as compared with the diabetes control group): significant increase
- Blood glucose level, Glu ([2]; 20 mg/kg oral group, day 7 of STZ administration (before start of dosing)): 575.8 ± 20.0 mg/dL
- Blood glucose level, Glu ([2]; 20 mg/kg oral, day 35 of STZ administration): 567.4 ± 22.5 mg/dL
